Measured values as given in PMC2912279, “Calycosin Promotes Angiogenesis Involving Estrogen Receptor and Mitogen-Activated Protein Kinase (MAPK) Signaling Pathway in Zebrafish and HUVEC” (PLoS ONE, 2010).

Columns and labels:
[1] = test system: subintestinal vein vessels (SIVs) of Tg(fli1:EGFP) zebrafish embryos; test: Blood vessel formation (SIV diameter/morphology) in Tg(fli1:EGFP) zebrafish embryos; type: in vivo; conditions: for angiogenic effect in SIVs, comparison with classical SERMs: raloxifene 10 µM, tamoxifen 3 µM, 17-βEstradiol 10 µM, calycosin 100 µM
Experimental: Zebrafish embryos were generated by natural pair-wise mating (3–12 months old) and were raised at 28.5°C in embyro water. Healthy, hatched zebrafish were picked out at 3 dpf and distributed into a 12-well microplate with 10 to 15 fish in each well. […] Embryos receiving DMSO (0.1%) served as vehicle controls and were equivalent to no treatment. Each experiment was repeated at least three times, with 30 embryos per group. VTKI was dissolved in DMSO as stock. Zebrafish embryos, Tg(fli-1:EGFP) and Tg(fli-1:nEGFP), were treated with inhibitor dissolved in embryo water from 3 dpf at the concentration indicated, controlled by DMSO treated embryos. Embryos were maintained using standard methods.
(§1) At 96 hpf, zebrafish were removed from microplates and observed for viability and gross morphological changes under a fluorescence microscope (Olympus IX81 Motorized Inverted Microscope, Japan) equipped with a digital camera (DP controller, Soft Imaging System, Olympus). Images were analyzed with Axiovision 4.2 and Adobe Photoshop 7.0.
Three random points in SIVs of Tg(fli1:EGFP) zebrafish embryos were chosen for vessel diameter measurement using AxiovisionLE 4.1. Numbers of endothelial cells in SIVs of Tg(fli1:nEGFP) zebrafish embryos were assessed by direct counting of the total number of green light points. Each green light point represents one endothelial cell (GFP+).

[2] = test system: zebrafish embryos; test: Toxicity (highest non-toxic dose) in zebrafish embryos; type: in vivo; conditions: 72 hpf for 24 h
Experimental: (§2) Zebrafish embryos were generated by natural pair-wise mating (3–12 months old) and were raised at 28.5°C in embyro water. Healthy, hatched zebrafish were picked out at 3 dpf and distributed into a 12-well microplate with 10 to 15 fish in each well. Different concentrations (10, 30, 100 µM) of calycosin, raloxifene or tamoxifen solutions were then added to wells and incubated at 28°C for 24 h. Embryos receiving DMSO (0.1%) served as vehicle controls and were equivalent to no treatment. Each experiment was repeated at least three times, with 30 embryos per group. VTKI was dissolved in DMSO as stock. Zebrafish embryos, Tg(fli-1:EGFP) and Tg(fli-1:nEGFP), were treated with inhibitor dissolved in embryo water from 3 dpf at the concentration indicated, controlled by DMSO treated embryos. Embryos were maintained using standard methods.
as §1

[3] = test system: HUVEC; test: HUVEC viability/proliferation by XTT assay; type: cell-based, Human; conditions: P<0.05
[4] = test system: ERK1/2; test: Western blotting of phospho-ERK1/2 in HUVEC; type: cell-based, Human
[5] = test system: endothelial cells in SIVs of Tg(fli1:nEGFP) zebrafish embryos; test: Endothelial cell number in SIVs of Tg(fli1:nEGFP) zebrafish embryos; type: in vivo; conditions: calycosin 10, 30, 100 µM, 72 hpf for 24 h; SIV region
Experimental: as §2, with “Embryos were maintained using standard methods.” left out
as §1
Three random points in SIVs of Tg(fli1:EGFP) zebrafish embryos were chosen for vessel diameter measurement using AxiovisionLE 4.1. Numbers of endothelial cells in SIVs of Tg(fli1:nEGFP) zebrafish embryos were assessed by direct counting of the total number of green light points. […]

[6] = test system: VEGFA, VEGFR1, Flk1A, Flk1B mRNA; test: mRNA expression in calycosin treated zebrafish by real-time PCR; type: in vivo; conditions: 100 µM, 6 h
Experimental: Zebrafish embryos at 72 hpf were treated with calycosin for 6 h. Total RNA was extracted from 30 zebrafish embryos of each treatment group using the RNeasy Mini Kit (Qiagen, USA) in accordance with the manufacturer's instructions. RNA was reverse transcribed to single-strand cDNA using SuperScript™ III First-Strand Synthesis System for RT–PCR (Invitrogen™, USA), followed by real-time PCR using the TaqMan® Universal PCR Master Mix and 250 nM custom TaqMan primers for zebrafish Flk1A, Flk1B, VEGFR1, VEGFA2 (Applied Biosystems, USA) in the ABI 7500 Real-Time PCR System (Applied Biosystems). The expression of Flk1A, VEGFA2 mRNA was normalized to the amount of bactin1, using the relative quantification method described by the manufacturer.
The zebrafish bactin1 primers were 5′-[…]-3′ (F) and 5′-[…]-3′(R) (Applied Biosystems, USA).
The zebrafish Flk1A (kdrl) primers were 5′- […]-3′ (F) and 5′- […]-3′(R) (Applied Biosystems, USA).
The zebrafish Flk1B (kdr) primers were 5′- […]-3′ (F) and 5′-[…]-3′(R) (Applied Biosystems, USA).
The zebrafish FLT1 primers were 5′-[…]-3′ (F) and 5′-[…]-3′(R) (Applied Biosystems, USA).
The zebrafish VEGFA2 primers were 5′-[…]-3′ (F) and 5′-[…]-3′ (R) (Applied Biosystems, USA).

[7] = target: T1, ERα (Homo sapiens, UniProt P03372); test: ER fluorescence polarization competitive binding assay (Fluormone ES2 displacement), ERα
T1 construct: purchased Invitrogen
T1 sequence (P03372 1-595): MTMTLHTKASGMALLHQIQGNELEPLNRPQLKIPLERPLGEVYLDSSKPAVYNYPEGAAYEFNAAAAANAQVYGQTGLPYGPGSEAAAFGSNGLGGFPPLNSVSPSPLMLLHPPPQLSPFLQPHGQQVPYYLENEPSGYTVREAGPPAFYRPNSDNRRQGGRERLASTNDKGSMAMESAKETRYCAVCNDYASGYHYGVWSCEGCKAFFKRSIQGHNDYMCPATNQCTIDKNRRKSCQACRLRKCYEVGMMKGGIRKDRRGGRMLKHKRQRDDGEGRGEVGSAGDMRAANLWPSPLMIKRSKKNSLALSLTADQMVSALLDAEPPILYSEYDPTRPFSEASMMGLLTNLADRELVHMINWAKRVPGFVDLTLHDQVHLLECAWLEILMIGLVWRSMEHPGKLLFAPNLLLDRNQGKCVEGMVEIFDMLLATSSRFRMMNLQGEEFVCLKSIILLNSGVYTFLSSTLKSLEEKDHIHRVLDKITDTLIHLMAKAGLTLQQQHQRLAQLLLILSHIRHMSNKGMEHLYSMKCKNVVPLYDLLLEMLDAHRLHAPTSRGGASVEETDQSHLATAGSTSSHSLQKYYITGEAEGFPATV
Experimental: (§3) The binding affinity of calycosin to ER-α and β was evaluated by the commercially available competitor assay (Invitrogen, Carlasbad, CA) according to the manufacturer's instructions. In brief, ER was added to fluorescently tagged ER ligand (Fluormone™ ES2) to form ER/Fluormone™ ES2 complexes with a high fluorescent polarization value. Displacement of fluorescently tagged ligands by unlabeled ligands decreased fluorescent polarization, resulting in a low value. In this system, changes in intensity of polarization reflect displacement of fluorescently tagged ligands. […] Plates were incubated at room temperature for 2 h and fluorescent polarization values measured using a Multilabel Counter (Perkin Elmer, Singapore).

[8] = target: T2, ERβ (Homo sapiens, UniProt Q92731); test: biochemical
Experimental: as §3
Target sequence in this assay (Q92731 whole entry): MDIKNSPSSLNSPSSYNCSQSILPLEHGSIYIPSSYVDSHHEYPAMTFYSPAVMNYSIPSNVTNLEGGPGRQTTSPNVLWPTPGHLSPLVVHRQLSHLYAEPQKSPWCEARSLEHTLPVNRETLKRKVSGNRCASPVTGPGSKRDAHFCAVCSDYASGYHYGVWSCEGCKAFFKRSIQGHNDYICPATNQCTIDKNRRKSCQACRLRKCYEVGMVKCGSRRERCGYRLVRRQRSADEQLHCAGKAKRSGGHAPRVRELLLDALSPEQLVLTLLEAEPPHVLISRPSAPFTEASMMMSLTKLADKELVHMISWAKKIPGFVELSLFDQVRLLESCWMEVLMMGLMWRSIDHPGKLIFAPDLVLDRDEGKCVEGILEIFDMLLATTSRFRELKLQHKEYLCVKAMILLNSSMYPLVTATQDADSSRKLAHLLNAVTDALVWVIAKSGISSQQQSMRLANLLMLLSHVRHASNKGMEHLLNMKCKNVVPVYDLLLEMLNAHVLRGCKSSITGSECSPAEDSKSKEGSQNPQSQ

[9] = target: T2, ERβ; conditions: percentage of maximum activation induced by 17-β-estradiol (10 µM)
Target sequence in this assay (Q92731 264-498 limits assumed): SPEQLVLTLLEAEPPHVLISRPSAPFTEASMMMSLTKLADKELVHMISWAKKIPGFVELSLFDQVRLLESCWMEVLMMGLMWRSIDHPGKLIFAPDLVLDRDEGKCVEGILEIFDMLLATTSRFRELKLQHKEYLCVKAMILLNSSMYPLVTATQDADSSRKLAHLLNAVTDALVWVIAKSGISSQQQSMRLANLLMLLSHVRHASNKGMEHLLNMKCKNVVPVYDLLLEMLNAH

[10] = target: T2, ERβ
Target sequence in this assay (Q92731 264-498 limits assumed): as above

[11] = target: T3, ERα (Homo sapiens, UniProt P03372); test: GeneBLAzer β-lactamase reporter-gene assay, agonist activity, ERα-UAS-bla GripTite cells
T3 sequence (P03372 311-547 limits assumed): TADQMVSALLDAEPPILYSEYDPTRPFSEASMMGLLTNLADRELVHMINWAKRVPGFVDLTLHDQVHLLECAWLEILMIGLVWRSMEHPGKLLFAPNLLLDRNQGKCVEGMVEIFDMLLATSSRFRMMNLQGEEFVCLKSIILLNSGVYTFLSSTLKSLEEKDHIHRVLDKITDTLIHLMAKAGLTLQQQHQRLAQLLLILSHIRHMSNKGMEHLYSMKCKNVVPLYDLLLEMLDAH

[12] = target: T3, ERα; test: GeneBLAzer β-lactamase reporter-gene assay, antagonist activity against E2, ERα-UAS-bla GripTite cells; conditions: in presence of EC80 of 17-β-estradiol

C[C@]12CC[C@@H]3c4ccc(O)cc4CC[C@H]3[C@@H]1CC[C@@H]2O [E2, 17-β-estradiol]
angiogenic effect in SIVs, comparison with classical SERMs ([1]; 72 hpf for 24 h): no obvious changes | highest non-toxic dose in zebrafish embryos [2]: 10 µM

C[C@]12CC[C@@H]3c4ccc(O)cc4C[C@@H](CCCCCCCCC[S+]([O-])CCCC(F)(F)C(F)(F)F)[C@H]3[C@@H]1CC[C@@H]2O (stereo partly drawn) [ICI182, 780, reference compound]
reduction of calycosin-induced HUVEC proliferation ([3]; pre-treatment with ER inhibitor 30 µM before calycosin 100 µM): 40% | effect on calycosin-induced phosphorylation of ERK1/2 ([4]; ICI182, 780 30 µM, calycosin 100 µM): suppressed phosphorylation of ERK1/2 to control levels

O=C(Nc1ccc(Cl)cc1)c1ccccc1NCc1ccncc1 [VRI]
effect on calycosin-induced angiogenesis (SIV diameter and endothelial cell number) ([1]; VRI 100 ng/ml with calycosin 100 µM, 72 hpf for 24 h): sufficient to reverse the calycosin-induced angiogenic effects to control levels | effect on angiogenesis in zebrafish embryonic development, inhibitor alone, low concentration ([1]; VRI 100 ng/ml, 72 hpf for 24 h): no effect | effect on angiogenesis in zebrafish embryonic development, inhibitor alone, high concentration ([1]; VRI 1 µg/ml, 72 hpf for 24 h): caused significant (P<0.001) defects in angiogenesis

COc1ccc(-c2coc3cc(O)ccc3c2=O)cc1O [calycosin]
diameter of SIVs ([1]; calycosin 10, 30, 100 µM, 72 hpf to 96 hpf, vs 0.1% DMSO control, P<0.05 and P<0.001): increased in a dose-dependent manner | angiogenic effect in SIVs, comparison with classical SERMs ([1]; 72 hpf for 24 h): significant angiogenic effect | increase in endothelial cells population compared with the control [5]: approximately 1.5 times | VEGFA mRNA expression level compared to the control ([6]; embryos at 72 hpf, increase trend): 1.2 fold | Flk1A mRNA expression increase ([6]; P<0.001): 0.8 fold | Flk1B mRNA expression increase ([6]; P<0.001): 0.9 fold | VEGFR1 mRNA expression increase ([6]; P<0.001): 1.1 fold | IC50 value relative to that of E2 (higher) ([7]; binding to ERα and ERβ): approximately 10^4 fold | IC50 ([7]; displacement of Fluormone ES2, 2 h room temperature): 58.1 µM | IC50 [8]: 32.4 µM | promotion of HUVEC proliferation ([3]; calycosin 100 µM, Fig. 9A experiment): 67% | time at which phosphorylation of ERK1/2 reached a plateau ([4]; calycosin 100 µM): 30 to 60 min | phosphorylation of ERK1/2, concentration dependence ([4]; calycosin 10, 30, 100 µM for 30 min, maximum at 100 µM): enhanced in a dose-dependent manner | maximum agonistic activity at ERβ [9]: 8.6% | reduction in IC50 value at ERβ compared with ERα [10]: 2 fold | increase in maximal inhibition at ERβ compared with ERα ([10]; antagonist activity assay): 2 fold | maximum inhibition against E2 at ERβ ([10]; in presence of EC80 of 17-β-estradiol): 82% | EC50 [11]: 2.47 µM | increase in maximal activation at ERα compared with ERβ ([11]; agonist activity assay): 2 fold | reduction in EC50 value at ERα compared with ERβ (ERα selectivity) ([11]; agonist activity assay): 2 fold | maximum agonistic activity at ERα ([11]; percentage of maximum activation induced by 17-β-estradiol (10 µM)): 14.6% | maximum inhibition against E2 at ERα [12]: 46%

O=C(c1ccc(OCCN2CCCCC2)cc1)c1c(-c2ccc(O)cc2)sc2cc(O)ccc12 [raloxifene]
angiogenic effect in SIVs, comparison with classical SERMs ([1]; 72 hpf for 24 h): no obvious changes | highest non-toxic dose in zebrafish embryos [2]: 10 µM

CC/C(=C(\c1ccccc1)c1ccc(OCCN(C)C)cc1)c1ccccc1 [tamoxifen]
angiogenic effect in SIVs, comparison with classical SERMs ([1]; 72 hpf for 24 h): no obvious changes | highest non-toxic dose in zebrafish embryos [2]: 3 µM
